Measured values reported in patent publication US10508089B2, “Use of N-(1,3,4-Oxadiazol-2-yl)arylcarboxamides or their salts for controlling unwanted plants in areas of transgenic crop plants being tolerant to HPPD inhibitor herbicides” (BASF SE, priority 2014, dated 2019).
Where two headings read alike, the source gives them in different places.

Tests used:
[1] = biological target: PfHPPD Evo 40 SEQ ID No 27 (Pseudomonas sp., UniProt P80064, A172V/A339E/A53E/D148E/D45N/E105D/E287Q/E300V/E334P/F143Y/G286D/G335S/H150N/H254A/H63N/I158V/I187A/I249V/K92N/L18F/N24G/N280D/S245T/S257K/S301E/T205S/V65I); experiment: biochemical; parameters: species or system Pseudomonas fluorescens
Chain of PfHPPD Evo 40 SEQ ID No 27 (P80064 1-354 with tags or gaps with the stated changes limits assumed): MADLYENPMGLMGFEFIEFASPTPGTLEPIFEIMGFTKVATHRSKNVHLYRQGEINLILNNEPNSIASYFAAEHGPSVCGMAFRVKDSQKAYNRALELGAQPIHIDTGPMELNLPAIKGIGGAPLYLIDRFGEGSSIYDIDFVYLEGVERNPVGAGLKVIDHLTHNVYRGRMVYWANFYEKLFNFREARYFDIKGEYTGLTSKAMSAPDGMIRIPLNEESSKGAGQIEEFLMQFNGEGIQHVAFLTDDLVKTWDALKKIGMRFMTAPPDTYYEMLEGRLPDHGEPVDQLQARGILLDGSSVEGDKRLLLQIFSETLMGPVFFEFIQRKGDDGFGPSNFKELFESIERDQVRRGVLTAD

[2] = system: T2 soybean events expressing PfHPPD-W336 (PfHPPD-G336W); type: in vivo; conditions: 14 days after treatment

Compound: Cc1nnc(NC(=O)c2ccc(C(F)(F)F)c(S(C)(=O)=O)c2C)o1 [Compound 2-145]
- IC50 [1]: 5.01 µM
- Number of plants categorized herbicide tolerance “0” (marginal; 41%-100% damaged leaf area) ([2]; 6.25 g Al/ha, total 12): 1
- Number of plants categorized herbicide tolerance “1” (moderate; 26%-40% damaged leaf area) ([2]; 6.25 g Al/ha, total 12): 0
- Number of plants categorized herbicide tolerance “2” (good; 16%-25% damaged leaf area) ([2]; 6.25 g Al/ha, total 12): 0
- Number of plants categorized herbicide tolerance “3” (high; less than or equal to 15% damaged leaf area) ([2]; 6.25 g Al/ha, total 12): 11
- Number of plants categorized herbicide tolerance “0” (marginal; 41%-100% damaged leaf area) ([2]; 25 g Al/ha, total 16): 0
- Number of plants categorized herbicide tolerance “1” (moderate; 26%-40% damaged leaf area) ([2]; 25 g Al/ha, total 16): 2
- Number of plants categorized herbicide tolerance “2” (good; 16%-25% damaged leaf area) ([2]; 25 g Al/ha, total 16): 3
- Number of plants categorized herbicide tolerance “3” (high; less than or equal to 15% damaged leaf area) ([2]; 25 g Al/ha, total 16): 11
- Number of plants categorized herbicide tolerance “0” (marginal; 41%-100% damaged leaf area) ([2]; 50 g Al/ha, total 4): 0
- Number of plants categorized herbicide tolerance “1” (moderate; 26%-40% damaged leaf area) ([2]; 50 g Al/ha, total 4): 0
- Number of plants categorized herbicide tolerance “2” (good; 16%-25% damaged leaf area) ([2]; 50 g Al/ha, total 4): 1
- Number of plants categorized herbicide tolerance “3” (high; less than or equal to 15% damaged leaf area) ([2]; 50 g Al/ha, total 4): 3
- Number of plants categorized herbicide tolerance “0” (marginal; 41%-100% damaged leaf area) ([2]; 75 g Al/ha, total 4): 0
- Number of plants categorized herbicide tolerance “1” (moderate; 26%-40% damaged leaf area) ([2]; 75 g Al/ha, total 4): 1
- Number of plants categorized herbicide tolerance “2” (good; 16%-25% damaged leaf area) ([2]; 75 g Al/ha, total 4): 0
- Number of plants categorized herbicide tolerance “3” (high; less than or equal to 15% damaged leaf area) ([2]; 75 g Al/ha, total 4): 3
